In US20260273059A1, “METHODS OF EVADING IMMUNE REJECTION” (William Marsh Rice University, priority 2023, published 2026):

Tested on: cytokine producing, kill switch inducible cell line
Assay: Small molecule inducible kill switch
Type: cell-based
Details: 100 nM
Description: Cell engineering for cells equipped with a small molecule inducible kill switch consist of a base epithelial cell line and a highly modular PiggyBAC transposon system. This vector system is composed of a strong promotor that is constitutively expressed, a kozak translation initiation sequence, the gene of interest (any cytokine, chemokine, or other protein), an internal ribosome entry site, a kill switch gene, a puromycin resistance gene and a poly-A tail in between two inverted terminal repeat sequences. Variation to this system requires only gene of interest swapping and allows for quick and easy “plug and play” cell engineering. The kill switch can be added to enhance the safety of cells engineered to produce the following cytokines: IL-1, IL-1a, IL-1b, IL-1RA, IL-2, IL-4, IL-5, IL-6, IL-7, IL-8, IL-9, IL-10, IL-11, IL-12, IL-12a, IL-12b, IL-13, IL-14, IL-15, IL-16, IL-17, IL-20, IFN-α, IFN-b, IFN-c, TNF-α, TNF-b, TGF-b, CCL-1, CCL-2, CCL-3, CCL-4, CCL-5, CCL-6, CCL-7, CCL-8, CCL-9, CCL-10, CCL-11, CCL-12, CCL-13, CCL-14, CCL-15, CCL-16, CCL-18, CCL-19, CCL-20, CCL-21, CCL-22, CCL-23, CCL-24, CCL-25, CCL-26, CCL-27, CCL-28, CXCL1, CXCL2, CXCL3, CXCL4, CXCL5, CXCL6, CXCL7, CXCL8, CXCL9, CXCL10, CXCL11, CXCL12, CXCL13, CXCL14, CXCL15, CXCL16, CXCL17. […]

Question: Which “time in which the kill switch inducible cell line responds” value does the source give for `CC[C@H](C(=O)N1CCCC[C@H]1C(=O)O[C@H](CCc1ccc(OC)c(OC)c1)c1cccc(OCC(=O)NCCNC(=O)COc2cccc([C@@H](CCc3ccc(OC)c(OC)c3)OC(=O)[C@@H]3CCCCN3C(=O)[C@@H](CC)c3cc(OC)c(OC)c(OC)c3)c2)c1)c1cc(OC)c(OC)c(OC)c1` [AP1903, rimiducid] here?
Answer: less than 24 hours
